Key:
Type in all cases: biochemical
Human plasmin = biological target: T1, Human plasmin (Homo sapiens, UniProt P00747); experiment: Serine protease inhibition (Kass), plasmin
T1 construct: Human plasmin is purchased from Boehringer Mannheim; purchased Boehringer Mannheim, Indianapolis, Ind
Procedure: (§1) By substantially following the procedures described above for human thrombin, and using other human blood coagulation system serine proteases and using fibrinolytic system serine proteases, with the appropriate chromogenic substrates, identified below, the selectivity of the compounds of the present invention with respect to the coagulation factor serine proteases and to the fibronolytic serine proteases are evaluated as well as their substantial lack of interference with human plasma clot fibrinolysis.
(§2) Human plasmin is purchased from Boehringer Mannheim, Indianapolis, Ind.; nt-PA is purchased as single chain activity reference from American Diagnostica, Greenwich, Conn.; modified-t-PA6 (mt-PA6) is prepared at Eli Lilly and Company by procedure known in the art (See, Burck, et al., J. Biol. Chem., 265, […] (1990). Plasmin chromogenic substrate H-D-Val-Leu-Lys-p-nitroanilide and tissue plasminogen activator (t-PA) substrate H-D-Ile-Pro-Arg-p-nitroanilide are purchased from Kabi Vitrum, Stockholm, Sweden.

human plasma [1] = experiment: Human plasma anticoagulation, activated partial thromboplastin time (APTT)
Procedure: (§3) Fibrinogen is prepared from in-date ACD human blood as the fraction I-2 according to previous procedures and specifications. Smith, Biochem. […] Coagulation reagents ACTIN, Thromboplastin, and Human plasma are from Baxter Healthcare Corp., Dade Division, Miami, Fla. Bovine thrombin from Parke-Davis (Detroit, Mich.) is used for coagulation assays in plasma. Coagulation assay procedures are as previously described. […] A CoAScreener coagulation instrument (American LABor, Inc.) is used for all coagulation assay measurements. […] The compounds of formula I are added to human or animal plasma over a wide range of concentrations to determine prolongation effects on the APTT, PT, and TT assays. Linear extrapolations are performed to estimate the concentrations required to double the clotting time for each assay.

factor Xa = biological target: T2, factor Xa (Homo sapiens, UniProt P00742); experiment: Serine protease inhibition (Kass), factor Xa
T2 construct: Human factors X, Xa, IXa, XIa, and XIIa are purchased from Enzyme Research Laboratories; purchased Enzyme Research Laboratories, South Bend, Ind
T2 sequence (P00742 235-488 limits assumed): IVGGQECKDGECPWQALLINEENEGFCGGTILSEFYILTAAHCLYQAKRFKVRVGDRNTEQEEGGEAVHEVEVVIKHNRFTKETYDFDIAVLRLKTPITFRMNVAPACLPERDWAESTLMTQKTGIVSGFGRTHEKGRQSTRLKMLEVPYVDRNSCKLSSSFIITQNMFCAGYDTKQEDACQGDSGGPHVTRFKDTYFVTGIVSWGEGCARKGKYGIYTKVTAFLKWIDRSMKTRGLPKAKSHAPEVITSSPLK
T2 sequence (P00742 41-179 partner limits assumed): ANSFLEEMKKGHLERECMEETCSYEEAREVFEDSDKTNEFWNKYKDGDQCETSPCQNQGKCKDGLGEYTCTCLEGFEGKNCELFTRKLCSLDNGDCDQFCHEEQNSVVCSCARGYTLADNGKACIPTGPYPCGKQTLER
Procedure: as §1
(§4) Human factors X, Xa, IXa, XIa, and XIIa are purchased from Enzyme Research Laboratories, South Bend, Ind.; human urokinase from Leo Pharmaceuticals, Denmark; and recombinant activated Protein C (aPC) is prepared at Eli Lilly and Co. substantially according to U.S. Pat. No. 4,981,952 incorporated by reference herein in its entirety. Chromogenic substrates: N-Benzoyl-Ile-Glu-Gly-Arg-p-nitroanilide (for factor Xa); N-Cbz-D-Arg-Gly-Arg-p-nitroanilide (for factor IXa assay as the factor Xa substrate); Pyroglutamyl-Pro-Arg-p-nitroanilide (for Factor XIa and for aPC); H-D-Pro-Phe-Arg-p-nitroanilide (for factor XIIa); and Pyroglutamyl-Gly-Arg-p-nitroanilide (for urokinase); are purchased from KabiVitrum, Stockholm, Sweden, or from Midwest Biotech, Fishers, Ind. Bovine trypsin is purchased from Worthington Biochemicals, Freehold, N.J., and human plasma kallikrein from Kabi Vitrum, Stockholm, Sweden. Chromogenic substrate H-D-Pro-Phe-Arg-p-nitroanilide for plasma kallikrein is purchased from Kabi Vitrum, Stockholm, Sweden. N-Benzoyl-Phe-Val-Arg-p-nitroanilide, the substrate for human thrombin and for trypsin, is synthesized according to procedures described above for the compounds of the present invention, using known methods of peptide coupling from commercially available reactants, or purchaed from Midwest Biotech, Fishers, Ind.

[2] = biological target: T3, tissue plasminogen activator (t-PA) (Homo sapiens, UniProt P00750); experiment: Serine protease inhibition (Kass), t-PA
T3 construct: purchased American Diagnostica, Greenwich, Conn
T3 sequence (P00750 36-562): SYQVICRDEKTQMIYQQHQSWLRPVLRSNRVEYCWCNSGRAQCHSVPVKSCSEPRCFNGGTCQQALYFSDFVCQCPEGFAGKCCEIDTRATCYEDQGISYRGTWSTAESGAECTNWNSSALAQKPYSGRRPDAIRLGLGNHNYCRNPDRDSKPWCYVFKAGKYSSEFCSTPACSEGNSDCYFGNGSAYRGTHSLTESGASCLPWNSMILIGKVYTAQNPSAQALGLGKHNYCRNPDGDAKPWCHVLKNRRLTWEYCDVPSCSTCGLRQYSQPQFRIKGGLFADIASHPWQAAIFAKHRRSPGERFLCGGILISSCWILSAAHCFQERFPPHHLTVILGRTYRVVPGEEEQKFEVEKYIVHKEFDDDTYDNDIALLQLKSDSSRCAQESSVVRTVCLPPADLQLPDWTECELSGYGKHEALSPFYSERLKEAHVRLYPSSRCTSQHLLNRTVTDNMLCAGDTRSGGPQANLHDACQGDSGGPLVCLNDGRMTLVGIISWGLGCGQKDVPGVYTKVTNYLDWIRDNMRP
Procedure: as §1, §2

human plasma [3] = experiment: Human plasma anticoagulation, prothrombin time (PT)
Procedure: as §3

human thrombin = human thrombin (Homo sapiens, UniProt P00734); experiment: Thrombin amidase inhibition (Kass), chromogenic substrate
Procedure: The assay is carried out by mixing 50 μl buffer (0.03M Tris, 0.15M NaCl, pH 7.4) with 25 μl of human thrombin solution (purified human thrombin, Enzyme Research Laboratories, South Bend, Ind., at 8 NIH units/ml) and 25 μl of test compound in a solvent (50% aqueous methanol (v:v)). Then 150 μl of an aqueous solution of the chromogenic substate (at 0.25 mg/ml) are added and the rates of hydrolysis of the substrate are measured by monitoring the reactions at 405 nm for the release of p-nitroaniline. Standard curves are constructed by plotting free thrombin concentration against hydrolysis rate. […] The amount of free inhibitor in each assay is calculated by subtracting the number of moles of bound thrombin from the number of moles of added inhibitor (test compound).
The Kass value is the hypothetical equilibrium constant for the reaction between thrombin and the test compound (I) . [formula]
Kass is calculated for a range of concentrations of test compounds and the mean value reported in units of liter per mole.

Bovine trypsin = biological target: T4, Bovine trypsin (Bos taurus, UniProt P00760); experiment: Serine protease inhibition (Kass), trypsin
T4 construct: Bovine trypsin is purchased from Worthington Biochemicals; purchased Worthington Biochemicals, Freehold, N.J
T4 sequence (P00760 24-246): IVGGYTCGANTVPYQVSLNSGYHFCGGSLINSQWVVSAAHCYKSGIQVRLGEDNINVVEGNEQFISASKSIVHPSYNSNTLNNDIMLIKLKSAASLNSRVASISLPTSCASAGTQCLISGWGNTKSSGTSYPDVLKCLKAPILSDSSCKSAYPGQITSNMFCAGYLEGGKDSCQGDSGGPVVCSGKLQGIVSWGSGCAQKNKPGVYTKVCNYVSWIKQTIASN
Procedure: as §1, §4

human plasma [4] = experiment: Human plasma anticoagulation, thrombin time (TT)
Procedure: as §3

T1 sequence (P00747 581-810 limits assumed): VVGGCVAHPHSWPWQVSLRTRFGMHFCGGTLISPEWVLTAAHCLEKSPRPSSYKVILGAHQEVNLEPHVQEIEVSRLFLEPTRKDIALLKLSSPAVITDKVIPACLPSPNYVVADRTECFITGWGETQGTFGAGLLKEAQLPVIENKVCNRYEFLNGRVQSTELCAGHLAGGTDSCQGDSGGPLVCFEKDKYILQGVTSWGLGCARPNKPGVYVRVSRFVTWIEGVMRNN
T1 sequence (P00747 97-580 partner limits assumed): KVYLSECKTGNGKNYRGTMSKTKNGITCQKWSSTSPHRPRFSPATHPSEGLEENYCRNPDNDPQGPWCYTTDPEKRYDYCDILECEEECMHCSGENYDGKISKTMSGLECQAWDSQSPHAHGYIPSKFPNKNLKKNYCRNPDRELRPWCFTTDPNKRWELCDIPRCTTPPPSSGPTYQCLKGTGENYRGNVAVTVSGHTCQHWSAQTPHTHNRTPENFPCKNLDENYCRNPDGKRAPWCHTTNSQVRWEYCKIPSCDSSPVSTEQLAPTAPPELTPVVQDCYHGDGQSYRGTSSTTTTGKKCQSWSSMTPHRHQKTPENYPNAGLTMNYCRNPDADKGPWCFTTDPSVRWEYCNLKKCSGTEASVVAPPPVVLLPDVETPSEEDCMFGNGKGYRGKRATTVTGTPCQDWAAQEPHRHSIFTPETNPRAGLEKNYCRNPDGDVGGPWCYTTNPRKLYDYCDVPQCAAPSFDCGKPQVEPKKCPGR

SMILES | Kass Plasmin (Human plasmin) [L/mol × 10^6] | 2 × Clotting time APTT (human plasma [1]) | Kass Xa (factor Xa) [L/mol × 10^6] | Kass t-PA [2] [L/mol × 10^6] | 2 × Clotting time PT (human plasma [3]) | Kass Human Thrombin (human thrombin) [L/mol × 10^6] | Kass Trypsin (Bovine trypsin) [L/mol × 10^6] | 2 × Clotting time TT (human plasma [4]) [ng/mL]
CCOC(=O)NC(CC)(Cc1ccccc1)C(=O)N1CCC[C@H]1C(=O)N[C@H](C=O)CCCNC(=N)N.Cl (stereo partly drawn) [Example 36, N-ethoxycarbonylphenylalanyl(αethyl)-L-prolinyl-L-arginine aldehyde hydrochloride] | 0.058 | 5,000 ng/mL | 0.078 | 0.001 | 7,100 ng/mL | 6.5 | 4.7 | 310
CCC[C@](Cc1ccccc1)(NC(=O)OCC)C(=O)N1CCC[C@H]1C(=O)N[C@H](C=O)CCCNC(=N)N.Cl [Example 37] | 0.12 | 4,100 ng/mL | 0.030 | < 0.001 | 2,800 ng/mL | 47 | 4.9 | 71
CCCC(Cc1ccccc1)(NC(=O)OCC)C(=O)N1CCC[C@H]1C(=O)N[C@H](C=O)CCCNC(=N)N.Cl (stereo partly drawn) [Example 38, N-ethoxycarbonylphenylalanyl(αn-propyl)-L-prolinyl-L-arginine aldehyde hydrochloride] | 0.074 | 2,700 ng/mL | 0.077 | < 0.001 | 2,200 ng/mL | 38 | 7.3 | 98
CCCC[C@](Cc1ccccc1)(NC(=O)OCC)C(=O)N1CCC[C@H]1C(=O)N[C@H](C=O)CCCNC(=N)N.Cl [Example 39, N-ethoxycarbonyl-D-phenylalanyl(αn-butyl)-L-prolinyl-L-arginine aldehyde hydrochloride] | 0.066 | 3,400 ng/mL | 0.095 | < 0.001 | 3,000 ng/mL | 66 | 21 | 160
CCCCC(Cc1ccccc1)(NC(=O)OCC)C(=O)N1CCC[C@H]1C(=O)N[C@H](C=O)CCCNC(=N)N (stereo partly drawn) [Example 40, N-ethoxycarbonylphenylalanyl(αn-butyl)-L-prolinyl-L-arginine aldehyde] | 0.13 | 3,100 ng/mL | 0.088 | 0.001 | 2,400 ng/mL | 47 | 15 | 91
CCS(=O)(=O)NC(C)(C(=O)N1CCC[C@H]1C(=O)N[C@H](C=O)CCCNC(=N)N)c1ccccc1.Cl (stereo partly drawn) [Example 41, N-ethylsulfonyl-(D,L)-phenylglycinyl(αmethyl)-L-prolinyl-L-arginine aldehyde hydrochloride] | 1.2 | 1,200 ng/mL | 0.49 | 0.023 | 2,100 ng/mL | 430 | 42 | 52
C[C@@]1(C(=O)N[C@H](C=O)CCCNC(=N)N)CCCN1C(=O)[C@@H](Cc1ccccc1)NS(C)(=O)=O.Cl [Example 43, N-methylsulfonyl-D-phenylalanyl(αmethyl)-L-prolinyl-L-arginine aldehyde hydrochloride] | 0.56 | 1,500 ng/mL | 0.23 | 0.027 | 1,600 ng/mL | 31 | 28 | 41
C[C@@]1(C(=O)N[C@H](C=O)CCCNC(=N)N)CCCN1C(=O)[C@H](Cc1ccccc1)NS(C)(=O)=O.Cl [Example 44, N-methylsulfonylphenylalanyl(αmethyl)-L-prolinyl-L-arginine aldehyde hydrochloride] | 0.031 | 12,000 ng/mL | 0.033 | 0.0023 | 11,000 ng/mL | 2.1 | 1.4 | 560
Cl.N=C(N)NCCC[C@@H](C=O)NC(=O)[C@@H]1CCCN1C(=O)[C@@H](Cc1ccccc1)NC(=O)Cc1cccnc1 [Example 48, N-(3-pyridylacetyl)-D-phenylalanyl-L-Prolinyl-L-Arginine Aldehyde Hydrochloride] | 0.27 | 2,300 ng/mL | 0.067 | 0.22 | 3,400 ng/mL | 13 | 5.2 | 150
Cl.Cn1c(C(=O)N[C@H](CC2CCCCC2)C(=O)N2CCC[C@H]2C(=O)N[C@H](C=O)CCCNC(=N)N)cc2ccccc21 [Example 49, N-(1-methylindolyl-2-carbonyl)-D-cyclohexylalanyl-L-Prolinyl-L-Arginine Aldehyde Hydrochlonde] | 25 | 1,000 ng/mL | 4.6 | 1.1 | 2,500 ng/mL | 320 | 7.9 | 110
Cl.N=C(N)NCCC[C@@H](C=O)NC(=O)[C@@H]1CCCN1C(=O)[C@@H](CC1CCCCC1)NC(=O)c1cc2ccccc2cn1 [Example 50, N-(isoquinolinyl-2-carbonyl)-D-cyclohexylalanyl-L-Prolinyl-L-Arginine Aldehyde Hydrochloride] | 2.5 | 1,400 ng/mL | 0.83 | 0.088 | 2,700 ng/mL | 200 | 2.5 | 97
